# According to publication PMC6934184, “Selective DNA-PKcs inhibition extends the therapeutic index of localized radiotherapy and chemotherapy” (The Journal of Clinical Investigation, 2019):
# Tested on: DNA-PK–expressing tumor cell lines
# Assay: clonogenic survival with IR, tumor cell line panel
# Assay type: cell-based, human
# Conditions: 1 μM, 24 hours
# Description: Cell line γH2AX and 53BP1 foci immunofluorescence and quantitation
# Cells grown on coverslips or in 96-well plates were treated with 1 or 5 µM NU5455 or DMSO 1 hour prior to irradiation (0, 2.5 or 10 Gy) using an RS 320 X-ray Research System (Gulmay Medical). At set timepoints (15 or 30 minutes, or 1, 4, 5, 6, or 24 hours post-irradiation), cells were washed and fixed in methanol or 3% paraformaldehyde (PFA). […] In A549 and Calu-6, cells were Hoechst stained (5 µg/ml), and the average numbers of γH2AX and 53BP1 foci per cell were quantified from 400 nuclei per sample using an In Cell analyzer 1000 (GE Healthcare). For MCF7 cells, coverslips were mounted using Vectashield mounting medium with DAPI (Vector Labs) and imaged using a Leica TCS SPE confocal fluorescence microscope. Total fluorescence intensity was determined using ImagePro Plus 5.0 software (Media Cybernetics). […]
# Cells were washed in phosphate-buffered saline (PBS), trypsinized and counted. […] Colonies were fixed using Carnoys fixture (75% v/v methanol, 25% v/v acetic acid, Fisher), stained with crystal violet (0.4% w/v in water), and counted using a ColCount automated colony counter (Oxford Optronics). Cell survival was calculated as a percentage of the untreated control. […]
smiles,measurement,value
CN(C(=O)CN1CCOCC1)c1ccc2sc3c(-c4cccc5c(=O)cc(N6CC7CCC(C6)O7)oc45)cccc3c2c1 [NU5455],"SER80 values, median over cell lines",2.3 fold
